Non-standard residues stand in square brackets, D forms with d. Residues, ends and D or L forms follow the SMILES beside them. *: point of attachment. 2Nal = N[C@@H](Cc1ccc2ccccc2c1)C(=O)O; Cit = NC(=O)NCCC[C@H](N)C(=O)O; Pip = O=C(O)[C@@H]1CCCCN1; ClAc = O=C(CCl)*
Legend:
Pin1 = Pin1 (Homo sapiens, UniProt Q13526); test: Lysate target engagement (pull down with biotinylated probes; competition assay); format: binding; set-up: endogenous in cells; host or cells: MDA-MB-231
Procedure, shortened: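 MDA-MB-231 (TNBC) lysates, 500 μg protein, incubated 1 h at 4 °C with compound, then streptavidin pull-down 2 h at 4 °C; western blot read-out. Competition format: lysate pre-incubated overnight at 4 °C with competitor, then 1 μM desthiobiotin probe for 1 h before pull-down.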

Pin1 (GST-Pin1) = Pin1 (GST-Pin1) (Homo sapiens, UniProt Q13526); test: Chymotrypsin-coupled PPIase assay, inhibition of isomerase activity; format: biochemical; settings: 12 hours pre-incubation at 4° C.; Cheng-Prusoff equation; read-out: Ki, μM (PPlase Assay)
Chain of Pin1 (GST-Pin1) (Q13526 whole entry): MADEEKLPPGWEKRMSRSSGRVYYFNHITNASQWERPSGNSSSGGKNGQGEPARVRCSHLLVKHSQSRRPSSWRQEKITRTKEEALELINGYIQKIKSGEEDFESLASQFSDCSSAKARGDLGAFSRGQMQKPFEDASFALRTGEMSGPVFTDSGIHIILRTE
Protocol: Inhibition of Pin1 isomerase activity was determined using the chymotrypsin-coupled PPIase assay, using GST-Pin1 and Suc-Ala-pSer-Pro-Phe-pNA peptide substrate ([…]), as described previously (Yaffe et al., Science 275:1957-1960 (1997)). GST-Pin1 was pre-incubated with the indicated concentrations of compound for 12 hours at 4° C. in buffer containing 35 mM HEPES (pH 7.8), 0.2 mM DTT, and 0.1 mg/mL bovine serum albumin (BSA). Immediately before the assay was started, chymotrypsin (final concentration 6 mg/mL), followed by the peptide substrate (Suc-Ala-pSer-Pro-Phe-pNA peptide substrate, final concentration […]) was added. The Ki value obtained from the PPIase assay was derived from the Cheng-Prusoff equation, Ki=IC50/(1+S/Km), where Km is the Michaelis constant for the used substrate, S is the initial concentration of the substrate in the assay, and IC50 is the […] inhibitory concentration of the inhibitor.

Chain of Pin1 (Q13526 whole entry): as above

Lysate Target Engagement? (Pin1; TNBC-MDA-MB-231 lysate, biotin/dtb probes: pull down, others: competition, concentration under E5): Yes-Complete
Lysate Target Engagement? concentration stated for the engagement or pull down (Pin1; read with the E4 line of the same compound (complete, partial, probe pull down)): at 10 μM
Ki (Pin1 (GST-Pin1)): 0.021 µM
Compound: NC(=O)NCCC[C@H](NC(=O)[C@H](Cc1ccc2ccccc2c1)NC(=O)[C@@H]1CCCCN1C(=O)[C@H](CCC(=O)O)NC(=O)CCl)C(N)=O [Compound 2b-13, (S)-5-((S)-2-(((S)-1-(((S)-1-Amino-1-oxo-5-ureidopentan-2-yl)amino)-3-(naphthalen-2-yl)-1-oxopropan-2-yl)carbamoyl)piperidin-1-yl)-4-(2-chloroacetamido)-5-oxopentanoic acid] (ClAc-E[Pip][2Nal][Cit]-NH2)

— patent US20210238225A1, “PEPTIDOMIMETIC INHIBITORS OF THE PEPTIDYL-PROLYL CIS/TRANS ISOMERASE (PIN1)” (DANA-FARBER CANCER INSTITUTE, INC., priority 2018, published 2021)
